Columns and labels:
Assay type in all cases: cell-based, human
senescent fibroblasts [1] = assay: ki-67 fluorescence staining (cell division/proliferation marker)
Procedure: (§1) To determine whether the senescent cells subjected to the PDK1 inhibition are reverted to normal young cells, the PDX1 inhibitor BX-795 (Selleckchem) was applied to the senescent fibroblasts. Then, SA β-gal activity assay (senescence-associated β-galactosidase kit), wound healing assay, and fluorescence staining experiments were performed. Thus, the cell cycle change in the senescent cells based on PDK1 Inhibition was checked.
(§2) Specifically, cellular senescence was caused by exposing the cells for 7 days to culture conditions causing senescence, containing 100 ng/ml of IGF1, 100 ng/ml of doxorubicin, 10 % FBS, and 4.5 g/L of glucose. At this time, most of the cells turned senescent. Then, the PDK1 inhibitor was applied to the same culture condition for 7 days. Total 14 days of the application lapsed. […] Ki-67 expression was analyzed to evaluate the division activity of the cells and the results are shown in 4C.
(§3) In order to check whether the same result occurs when other PDK1 inhibitors are used, SA β-gal activity assay was performed in the same manner using PDK1 inhibitor 7. […] Therefore, the number of bluestained senescent cells as SA β-gal activity assay-positive and the total number of cells were counted using an optical microscope. […] In addition, fluorescence staining experiments were performed to check the expression of the cell proliferation marker ki-67.

senescent fibroblasts [2] = assay: SA β-gal activity assay (senescence-associated β-galactosidase kit)
Procedure: as §1, §2, §3

senescent fibroblasts [3] = assay: wound healing assay; conditions: same senescence/inhibitor conditions; growth-condition medium for 7 days; FIG. 4B
Procedure: To determine whether the senescent cells subjected to the PDK1 inhibition are reverted to normal young cells, the PDX1 inhibitor BX-795 (Selleckchem) was applied to the senescent fibroblasts. Then, SA β-gal activity assay (senescence-associated β-galactosidase kit), wound healing assay, and fluorescence staining experiments were performed. Thus, the cell cycle change in the senescent cells based on PDK1 Inhibition was checked. Specifically, cellular senescence was caused by exposing the cells for 7 days to culture conditions causing senescence, containing 100 ng/ml of IGF1, 100 ng/ml of doxorubicin, 10 % FBS, and 4.5 g/L of glucose. At this time, most of the cells turned senescent. Then, the PDK1 inhibitor was applied to the same culture condition for 7 days. Total 14 days of the application lapsed. Then, the cells were treated with growth media free of IGF1, doxorubicin, or PDK1 inhibitor. The wound healing assay was performed under the same conditions. Ki-67 expression was analyzed to evaluate the division activity of the cells and the results are shown in 4C.

In the case of `O=C(N[C@@H](COc1ccc2[nH]c(=O)[nH]c2c1)c1ccccc1)c1cccn(Cc2ccc(F)c(F)c2)c1=O` [PDK1 inhibitor 7], the “increase of the number of ki-67 positive cells” value (senescent fibroblasts [1]; PDK1 inhibitor applied to senescent cells, FIG. 5C, 5D) was ≥ 20% and the “reduction of SA β-gal stained cells compared with the PDK1 inhibitor non-treated group” value (senescent fibroblasts [2]; percentage of blue-stained senescent cells counted by optical microscope, statistically significant, FIG. 5A, 5B) was ≥ 40%.

`O=C(NCCCNc1nc(Nc2cccc(NC(=O)N3CCCC3)c2)ncc1I)c1cccs1` [BX-795] was tested, and the “ki-67 staining, cell division” value (senescent fibroblasts [1]; cells treated with growth medium at 7 days after the drug application, FIG. 4C) was “cell division occurred in some of the cells”, the “cell rejuvenation ability of the senescent cells (wound healing)” value (senescent fibroblasts [3]) was “normalized” and the “SA β-gal as an indicator of senescent cells” value (senescent fibroblasts [2]; senescence induced 7 days with IGF1 100 ng/ml + doxorubicin 100 ng/ml, PDK1 inhibitor applied 7 days, assay one day after change to growth media, FIG. 4A) was “significantly reduced”.

Reference: patent publication EP3643310B1, “COMPOSITION FOR REVERSE CONTROL OF CELLULAR SENESCENCE COMPRISING PDK1 INHIBITOR” (Korea Advanced Institute Of Science And Technology, priority 2018, dated 2020)
